Experimental data published in patent publication US20200069691A1, “HETEROCYCLIC COMPOUNDS AS HIV PROTEASE INHIBITORS” (Merck Sharp & Dohme Corp., priority 2016, published 2020).

The compounds below were run against T1, wild-type HIV-1 protease (Human immunodeficiency virus type 1 group M subtype B, UniProt P04585) (assay: Assay for Inhibition of Microbial Expressed HIV Protease (peptide substrate cleavage, LC-MS/MS readout)). Details: E. coli expressed wild-type HIV-1 protease, mean of at least two independent experiments, read-out: HIV Pr Enzyme HIV1 PR IC50.
T1 construct: Escherichia coli expressed wild-type HIV-1 protease protein
Format: biochemical
Outline: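 E. coli-expressed wild-type HIV-1 protease ([…]) was preincubated with inhibitor 30 min at room temperature in pH 5.5 acetate buffer (100 mM NaCl, 0.1% BSA). Then 400 μM octapeptide substrate was added and reacted 1 h at 30 °C; inhibition came from LC-MS/MS product peak areas, mean of ≥2 experiments.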
For `CC(C)CCC1(c2ccccc2)NC(=N)N(Cc2ccc(C(F)(F)F)c(C(=O)N3Cc4nccnc4C3)c2)C1=O` (stereo not drawn) [Compound 151, 3-[3-(5,7-dihydro-6H-pyrrolo[3,4-b]pyrazin-6-ylcarbonyl)-4-(trifluoromethyl)benzyl]-2-imino-5-(3-methylbutyl)-5-phenylimidazolidin-4-one], the IC50 was 6.62 nM.
In the case of `CC(C)CCC1(c2ccc(F)cc2)NC(=N)N(Cc2ccc(C(F)(F)F)c(C(=O)N3C[C@H]4OCc5cnnn5[C@H]4C3)c2)C1=O` (stereo partly drawn) [Compound 169], the IC50 is reported as 38.6 nM.
`N=C1NC(c2ccc(F)cc2)(c2ccc(F)cc2)C(=O)N1Cc1cccc(C(=O)N2CCC(n3c(=O)oc4ccccc43)CC2)c1` [Compound 319, 3-{1-[(3-{[4,4-bis(4-fluorophenyl)-2-imino-5-oxoimidazolidin-1-yl]methyl}phenyl)carbonyl]piperidin-4-yl}-1,3-benzoxazol-2(3H)-one] showed an IC50 of 56.2 nM.
`N=C1NC(c2ccccc2)(c2ccccc2)C(=O)N1Cc1cccc(C(=O)N2CCc3c(Cl)cccc3C2)c1` [Compound 281, 3-{3-[(5-chloro-3,4-dihydroisoquinolin-2(1H)-yl)carbonyl]benzyl}-2-imino-5,5-diphenylimidazolidin-4-one] was tested, and the IC50 was 31.1 nM.
Work on `N=C1N[C@](CCCC(F)(F)F)(c2ccc(F)cc2)C(=O)N1Cc1ccc(C(F)(F)F)c(C(=O)N2CCn3cnnc3C2)c1` [Compound 98, (5R)-3-[3-(5,6-dihydro[1,2,4]triazolo[4,3-a]pyrazin-7(8H)-ylcarbonyl)-4-(trifluoromethyl)benzyl]-5-(4-fluorophenyl)-2-imino-5-(4,4,4-trifluorobutyl)imidazolidin-4-one] yielded an IC50 of 20.7 nM.
For `CC(=O)N1CCN(C(=O)c2cc(CN3C(=N)N[C@](CCCC(F)(F)F)(c4ccc(F)cc4)C3=O)ccc2C(F)(F)F)CC1` [Compound 109, (5R)-3-{3-[(4-acetylpiperazin-1-yl)carbonyl]-4-(trifluoromethyl)-benzyl}-5-(4-fluorophenyl)-2-imino-5-(4,4,4-trifluorobutyl)-imidazolidin-4-one], the IC50 was 26.5 nM.
